Patent US11046716B2, “Beta-lactamase inhibitors” (priority 2015, dated 2021)
pIC50: −log10 of the molar value.

Key:
KPC-2 = target: T1, KPC-2 (Klebsiella pneumoniae, UniProt Q9F663); test: β-lactamase enzyme inhibition assay, KPC-2 (imipenem substrate); type: biochemical; conditions: Class A; imipenem substrate, 300 nm; read-out: KPC-2
T1 construct: made in house; host or cells: E. coli BL21(DE3)
Outline: (§1)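 Native untagged β-lactamases were expressed in E. coli BL21(DE3), then purified by cation exchange and gel filtration. Enzyme was preincubated with inhibitor for 15 min at 37 °C before substrate was added. Imipenem (A300) served KPC-2 and cefotaxime (A260) served SHV-5. IC50 was taken from initial hydrolysis rates relative to no-inhibitor controls.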

[1] = system: E. cloacae expressing the Class C P99; test: Broth microdilution MIC assay with ceftazidime, E. cloacae P99; type: cell-based; conditions: Fixed CAZ (ceftazidime) 4 μg/mL; E. cl. 144200 p99 AmpC
Outline: (§2)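 Test compounds in 2-fold dilutions (16 to 0.125 μg/mL final) in CAMHB were combined with a β-lactam at a static 4 μg/ml final. Plates were inoculated per CLSI broth microdilution with the β-lactamase-producing strain (pre-grown 3-5 h) and incubated 16-20 h at 37° C. MIC of test compound was read visually.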

[2] = system: P. aeruginosa expressing the Class B carbapenemase VIM-2; test: Broth microdilution MIC assay with meropenem, P. aeruginosa VIM-2; type: cell-based; conditions: Fixed Mero (meropenem) 4 μg/mL; P. aerug. 2775 VIM-2
Outline: as §2

VIM-2 = target: T2, VIM-2 (Escherichia coli, UniProt Q5U7L7); test: β-lactamase enzyme inhibition assay, VIM-2 (nitrocefin substrate); type: biochemical; conditions: Class B; nitrocefin substrate, 486 nm; read-out: VIM-2
T2 construct: made in house; host or cells: E. coli BL21(DE3)
Outline: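 Purified VIM-2 preincubated with inhibitor for 15 min at 37° C, then nitrocefin (100 μM final) added and absorbance at 486 nm followed for 10 min. Maximum hydrolysis rates compared with inhibitor-free controls; IC50 fitted from percent inhibition across inhibitor concentrations.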

[3] = system: E. coli expressing the Class A Extended Spectrum Beta-Lactamase (ESBL) CTX-M-15; test: Broth microdilution MIC assay with ceftazidime, E. coli CTX-M-15; type: cell-based; conditions: Fixed CAZ (ceftazidime) 4 μg/mL; E. coli ESBL4 CTX-M-15
Outline: as §2

OXA-48 = OXA-48 (UniProt Q6XEC0); test: β-lactamase enzyme inhibition assay, Class D oxacillinase; type: biochemical; conditions: read-out: OXA-48
[4] = system: K. pneumoniae expressing the Class A carbapenemase KPC-2; test: Broth microdilution MIC assay with meropenem, K. pneumoniae KPC-2; type: cell-based; conditions: Fixed Mero (meropenem) 4 μg/mL; K. p. 156319 KPC-3
Outline: as §2

SHV-5 = target: T3, SHV-5 (Klebsiella pneumoniae, UniProt P0A3M1); test: β-lactamase enzyme inhibition assay, SHV-5 (cefotaxime substrate); type: biochemical
T3 construct: made in house; host or cells: E. coli BL21(DE3)
T3 sequence (P0A3M1 22-286): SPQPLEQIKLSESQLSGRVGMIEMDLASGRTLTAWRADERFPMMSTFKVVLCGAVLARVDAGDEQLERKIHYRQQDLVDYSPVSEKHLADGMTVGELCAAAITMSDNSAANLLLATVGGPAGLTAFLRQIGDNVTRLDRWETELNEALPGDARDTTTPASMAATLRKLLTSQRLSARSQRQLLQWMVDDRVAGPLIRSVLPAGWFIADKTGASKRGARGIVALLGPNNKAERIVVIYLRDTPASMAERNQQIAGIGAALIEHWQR
Outline: as §1

AmpC = target: T4, AmpC (Enterobacter cloacae, UniProt P05364); test: β-lactamase enzyme inhibition assay, p99 AmpC (nitrocefin substrate); type: biochemical
T4 construct: made in house; host or cells: E. coli BL21(DE3)
T4 sequence (P05364 21-381): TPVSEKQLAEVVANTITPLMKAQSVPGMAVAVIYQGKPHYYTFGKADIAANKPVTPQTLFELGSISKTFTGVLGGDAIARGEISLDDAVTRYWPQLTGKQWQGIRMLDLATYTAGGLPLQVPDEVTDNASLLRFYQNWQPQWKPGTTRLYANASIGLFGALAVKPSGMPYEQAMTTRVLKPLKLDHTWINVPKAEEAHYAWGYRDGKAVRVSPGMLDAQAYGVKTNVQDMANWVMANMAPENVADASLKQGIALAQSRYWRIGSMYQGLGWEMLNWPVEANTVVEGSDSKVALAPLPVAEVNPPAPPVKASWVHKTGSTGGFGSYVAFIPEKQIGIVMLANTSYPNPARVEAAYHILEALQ
Outline: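 Native untagged β-lactamases were expressed in E. coli BL21(DE3), then purified by cation exchange and gel filtration. Enzyme was preincubated with inhibitor for 15 min at 37 °C before substrate was added. IC50 was taken from initial hydrolysis rates relative to no-inhibitor controls.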

[5] = system: K. pneumoniae producing the Class D carbapenemase OXA-48; test: Broth microdilution MIC assay with meropenem, K. pneumoniae OXA-48; type: cell-based; conditions: Fixed Mero (meropenem) 4 μg/mL; K. p. 11978 OXA-48
Outline: as §2

[6] = system: K. pneumoniae expressing the class A carbapenemase KPC-2 and the class B carbapenemase VIM-4; test: Broth microdilution MIC assay with meropenem, K. pneumoniae KPC-2 and VIM-4; type: cell-based; conditions: Fixed Mero (meropenem) 4 μg/mL; K. p. A-1797 KPC-2 VIM-4
Outline: as §2

T1 sequence (Q9F663 25-293, looked up): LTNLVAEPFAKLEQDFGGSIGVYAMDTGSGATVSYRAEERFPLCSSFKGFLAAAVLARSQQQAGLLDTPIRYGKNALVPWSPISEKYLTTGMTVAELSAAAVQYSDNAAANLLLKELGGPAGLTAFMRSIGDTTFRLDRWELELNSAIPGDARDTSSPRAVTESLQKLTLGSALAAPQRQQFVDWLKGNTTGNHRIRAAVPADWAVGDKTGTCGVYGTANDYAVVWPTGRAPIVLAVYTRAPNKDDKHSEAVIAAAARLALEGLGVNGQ

Row | Structure (SMILES) | pIC50 (KPC-2) | MIC (μg/mL) of Exemplary Compounds in presence of fixed β-lactams: E. cl. 144200 p99 AmpC [1] | MIC (μg/mL) of Exemplary Compounds in presence of fixed β-lactams: P. aerug. 2775 VIM-2 [2] | pIC50 (VIM-2) | MIC (μg/mL) of Exemplary Compounds in presence of fixed β-lactams: E. coli ESBL4 CTX-M-15 [3] | pIC50 (OXA-48) | MIC (μg/mL) of Exemplary Compounds in presence of fixed β-lactams: K. p. 156319 KPC-3 [4] | pIC50 (SHV-5) | pIC50 (AmpC) | MIC (μg/mL) of Exemplary Compounds in presence of fixed β-lactams: K. p. 11978 OXA-48 [5] | MIC (μg/mL) of Exemplary Compounds in presence of fixed β-lactams: K. p. A-1797 KPC-2 VIM-4 [6]
1 | O=C(Cn1cc(-c2ccsc2)nn1)N[C@H]1Cc2cccc(C(=O)O)c2OB1O [Example 29, (R)-2-hydroxy-3-(2-(4-(thiophen-3-yl)-1H-1,2,3-triazol-1-yl)acetamido)-3,4-dihydro-2H-benzo[e][1,2]oxaborinine-8-carboxylic acid] | > 7.00 | C (C represents an MIC of <1 μg/mL) | B (B represents an MIC between 1 and 16 μg/mL inclusive) | 6.00 to 7.00 | C (C represents an MIC of <1 μg/mL) | 6.00 to 7.00 | B (B represents an MIC between 1 and 16 μg/mL inclusive) | > 7.00 | > 7.00 | B (B represents an MIC between 1 and 16 μg/mL inclusive) | B (B represents an MIC between 1 and 16 μg/mL inclusive)
2 | NCc1cn(CCC(=O)N[C@H]2Cc3cccc(C(=O)O)c3OB2O)nn1 [Example 30, (R)-3-(3-(4-(aminomethyl)-1H-1,2,3-triazol-1-yl)propanamido)-2-hydroxy-3,4-dihydro-2H-benzo[e][1,2]oxaborinine-8-carboxylic acid] | > 7.00 | C (C represents an MIC of <1 μg/mL) | B (B represents an MIC between 1 and 16 μg/mL inclusive) | 6.00 to 7.00 | C (C represents an MIC of <1 μg/mL) | 6.00 to 7.00 | C (C represents an MIC of <1 μg/mL) | > 7.00 | > 7.00 | B (B represents an MIC between 1 and 16 μg/mL inclusive) | B (B represents an MIC between 1 and 16 μg/mL inclusive)
3 | COc1c(C[C@H](NC(=O)Cn2cc(CN)nn2)B(O)O)cccc1C(=O)O [Example 31, (R)-3-(2-(2-(4-(aminomethyl)-1H-1,2,3-triazol-1-yl)acetamido)-2-boronoethyl)-2-methoxybenzoic acid] | > 7.00 | C (C represents an MIC of <1 μg/mL) | C (C represents an MIC of <1 μg/mL) | 6.00 to 7.00 | B (B represents an MIC between 1 and 16 μg/mL inclusive) | 5.00 to 6.00 | B (B represents an MIC between 1 and 16 μg/mL inclusive) | > 7.00 | 6.00 to 7.00 | A (A represents an MIC>16 μg/mL) | B (B represents an MIC between 1 and 16 μg/mL inclusive)
4 | O=C(Cn1nnc(CN2CCOCC2)c1CN1CCOCC1)N[C@H]1Cc2cccc(C(=O)O)c2OB1O [Example 32, (R)-3-(2-(4,5-bis(morpholinomethyl)-1H-1,2,3-triazol-1-yl)acetamido)-2-hydroxy-3,4-dihydro-2H-benzo[e][1,2]oxaborinine-8-carboxylic acid] | > 7.00 | A (A represents an MIC>16 μg/mL) | B (B represents an MIC between 1 and 16 μg/mL inclusive) | 6.00 to 7.00 | B (B represents an MIC between 1 and 16 μg/mL inclusive) | 6.00 to 7.00 | B (B represents an MIC between 1 and 16 μg/mL inclusive) | > 7.00 | > 7.00 | A (A represents an MIC>16 μg/mL) | A (A represents an MIC>16 μg/mL)
5 | CC(C)(C(=O)N[C@H]1Cc2cccc(C(=O)O)c2OB1O)n1cc(CN)nn1 [Example 33, (R)-3-(2-(4-(aminomethyl)-1H-1,2,3-triazol-1-yl)-2-methylpropanamido)-2-hydroxy-3,4-dihydro-2H-benzo[e][1,2]oxaborinine-8-carboxylic acid] | > 7.00 | C (C represents an MIC of <1 μg/mL) | C (C represents an MIC of <1 μg/mL) | > 7.00 | C (C represents an MIC of <1 μg/mL) | > 7.00 | B (B represents an MIC between 1 and 16 μg/mL inclusive) | > 7.00 | > 7.00 | B (B represents an MIC between 1 and 16 μg/mL inclusive) | C (C represents an MIC of <1 μg/mL)
6 | NCCOCc1cn(CC(=O)N[C@H]2Cc3cccc(C(=O)O)c3OB2O)nn1 [Example 34, (R)-3-(2-(4-((2-aminoethoxy)methyl)-1H-1,2,3-triazol-1-yl)acetamido)-2-hydroxy-3,4-dihydro-2H-benzo[e][1,2]oxaborinine-8-carboxylic acid] | > 7.00 | C (C represents an MIC of <1 μg/mL) | C (C represents an MIC of <1 μg/mL) | 6.00 to 7.00 | C (C represents an MIC of <1 μg/mL) | 5.00 to 6.00 | B (B represents an MIC between 1 and 16 μg/mL inclusive) | > 7.00 | > 7.00 | B (B represents an MIC between 1 and 16 μg/mL inclusive) | B (B represents an MIC between 1 and 16 μg/mL inclusive)
7 | NC(=O)c1ncn(CC(=O)N[C@H]2Cc3cccc(C(=O)O)c3OB2O)n1 [Example 35, (R)-3-(2-(3-carbamoyl-1H-1,2,4-triazol-1-yl)acetamido)-2-hydroxy-3,4-dihydro-2H-benzo[e][1,2]oxaborinine-8-carboxylic acid] | > 7.00 | C (C represents an MIC of <1 μg/mL) | B (B represents an MIC between 1 and 16 μg/mL inclusive) | 5.00 to 6.00 | C (C represents an MIC of <1 μg/mL) | 5.00 to 6.00 | B (B represents an MIC between 1 and 16 μg/mL inclusive) | > 7.00 | > 7.00 | B (B represents an MIC between 1 and 16 μg/mL inclusive) | A (A represents an MIC>16 μg/mL)
8 | Nc1n[nH]c2ncc(-c3cn(CC(=O)N[C@H]4Cc5cccc(C(=O)O)c5OB4O)nn3)cc12 [Example 36] | > 7.00 | C (C represents an MIC of <1 μg/mL) | B (B represents an MIC between 1 and 16 μg/mL inclusive) | 5.00 to 6.00 | C (C represents an MIC of <1 μg/mL) | 6.00 to 7.00 | B (B represents an MIC between 1 and 16 μg/mL inclusive) | > 7.00 | > 7.00 | B (B represents an MIC between 1 and 16 μg/mL inclusive) | A (A represents an MIC>16 μg/mL)
